# Reference: patent US9060529B2, “Method for treatment of lacto-N-biose-containing solution” (Morinaga Milk Industry Co., Ltd., priority 2010, dated 2015)
# Tests used:
# [1] = Test Example 2: effect of heating temperature and time on stability of LNB in neutral liquid composition (TLC); type: physicochemical; conditions: pH 7.0; 90° C. for 0-60 minutes or 65-88° C. for 60 minutes
# Experimental: The LNB powder prepared in the above Production Example 1 was dissolved at a concentration of 2% in a 0.1 M phosphate buffer of pH 7.0 to prepare a sample (liquid composition containing LNB).
# 5 mL samples of the prepared sample were dispensed into test tubes, which were heated at 90° C. for 0, 10, 20, 30, 40, 50 or 60 minutes, or heated at 65, 67, 70, 75, 80, 85 or 88° C. for 60 minutes.
# Each of the heated samples was cooled to 15° C., and the same method as that described for Test Example 1 was used to determine whether or not decomposition had occurred, and if so, the extent of that decomposition.
# [2] = Test Example 1: effect of pH on stability of LNB upon heating (2% LNB in buffer, TLC of decomposed products); type: physicochemical; conditions: 90° C. for 60 minutes
# Experimental: Samples of the LNB powder prepared in the above Production Example 1 were dissolved at a concentration of 2% (by mass, this also applies to all subsequent concentration values) in a 0.1 M citrate buffer solution (pH: 3.0 to 6.0), a 0.1 M phosphate buffer solution (pH: 6.0 to 8.0) or a 0.1 M glycine buffer solution (pH: 8.5 to 10.5), thus preparing samples (liquid compositions containing LNB) 1 to 16 having pH values at intervals of 0.5 across the entire pH range mentioned above.
# A 5 mL sample of each of the prepared samples 1 to 16 was dispensed into a test tube and heated at 90° C. for 60 minutes.
# Each of the heated samples was cooled to 15° C., and 1 μL was then spotted onto a silica gel thin layer chromatography (TLC) plate. The plate was developed using an 80% acetonitrile solvent, and was then immersed in a 5% sulfuric acid solution and colorized by heating in an oven. The existence or absence of decomposed or denatured products (N-acetylglucosamine dehydrate and galactose) and the amount of those decomposed or denatured products were evaluated visually to determine whether or not decomposition had occurred, and if so, the extent of that decomposition.
structure (smiles),measurement,setting,value
"CC(=O)N[C@H]1C(O)O[C@H](CO)[C@@H](O)[C@@H]1O[C@@H]1O[C@H](CO)[C@H](O)[C@H](O)[C@H]1O (stereo partly drawn) [LNB, Lacto-N-biose]",stability of LNB (decomposition by TLC),[1],decomposed or denatured products were detected under all of the different heat treatment conditions
same,stability of the LNB upon heating (decomposition by TLC),"[2]; pH 5.5 or less, particularly 5.0 or less",stable and underwent almost no decomposition
same,stability of the LNB upon heating (decomposition by TLC),"[2]; pH 6.0 or higher, particularly 7.0 or higher",significant amounts of decomposed or denatured products were observed
